According to the NIST ThermoML archive (doi:10.1021/acs.jced.5b00200):
Several values for one entry are separate records, joined by “and”; a condition that tells them apart may be missing. Equal entries are not always repeated. Numbers after ± are expanded uncertainties.

Assay: wn = mass fraction of the nth substance listed
Conditions: 297.15 K, 100 kPa, Liquid, Alternating current cell with electrodes

Structure (SMILES)	electrical conductivity (w1 = 0.047)	electrical conductivity (w1 = 0.097)
CC(=O)[O-].[K+] [potassium ethanoate] + O	0.0484 S/m and 0.0479 S/m	–
CC(=O)[O-].[NH4+] [ammonium acetate] + O	0.0479 ± 0.004 S/m	–
CCC(C)O (stereo not given) [butan-2-ol] + O	–	0.0001 S/m

The next lines start with the values.

electrical conductivity (w1 = 0.047)	electrical conductivity (w1 = 0.097)	Structure (SMILES)
–	0.0001 S/m	CC(C)O [propan-2-ol] + O
0.0438 S/m and 0.0441 S/m	–	CC(=O)[O-].[Na+] [sodium ethanoate] + O
